Columns and labels:
[1] = biological target: T1, GST-Nrb331-453 and [35S]-labeled A1R202-326 (A1R-neurabin interaction) (Homo sapiens, UniProt Q9ULJ8); assay: In vitro GST competition pull-down; assay type: binding; conditions: peptide 0.1 μg/μl
T1 construct: made in house
T1 sequence (Q9ULJ8 331-453): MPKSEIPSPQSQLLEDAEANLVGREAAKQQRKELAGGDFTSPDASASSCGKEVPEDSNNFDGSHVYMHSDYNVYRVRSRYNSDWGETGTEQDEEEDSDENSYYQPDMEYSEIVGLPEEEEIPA
Source text: FIG. 5A is a competition pull-down assay testing the abilities of A1R 3i loop (3iL) and C-tail (CT) peptides in blocking the interaction between GST-Nrb331-453 and [^35S]-labeled A1R202-326. […] A1R202-326 pulled down by GST-Nrb331-453. Free probe represents 1/10 of the input in each reaction.
FIG. 5B is a competition pull-down assay testing the abilities of A1R 3i loop (3iL) and C-tail (CT) peptides in blocking the interaction between GST-Nrb331-453 and [^35S]-labeled A1R202-326. In the graphical representation, quantitation of the amount of [^35S] A1R202-326 pulled down by GST-Nrb331-453 is shown. Free probe represents 1/10 of the input in each reaction. * represents p<0.05 vs. BSA control by one-way ANOVA Dunnett's multiple comparisons test. N=3/group.
Preparation of GST fusion proteins, synthesis of [^35S]-labeled in vitro translated probes, and pull-down assays were performed as described previously (See, for example, Chen Y, Booth C, Wang H, Wang R X, Terzi D, Zachariou V, et al. Effective Attenuation of Adenosine A1R Signaling by Neurabin Requires Oligomerization of Neurabin. Mol Pharmacol. 2017; 92 (6): 630-9; and Chen Y, Liu Y, Cottingham C, McMahon L, Jiao K, Greengard P, et al. Neurabin scaffolding of adenosine receptor and RGS4 regulates anti-seizure effect of endogenous adenosine. J Neurosci. 2012, 32 (8): 2683-95). […]

[2] = system: primary hippocampal neurons; assay: Glutamate-induced cell death in primary hippocampal neurons; assay type: cell-based, mice; conditions: 100 μM glutamate plus 10 μM R-PIA
Experimental: Primary hippocampal culture was performed as described previously (Chen Y, Liu Y, Cottingham C, McMahon L, Jiao K, Greengard P, et al. Neurabin scaffolding of adenosine receptor and RGS4 regulates anti-seizure effect of endogenous adenosine. J Neurosci. 2012, 32 (8): 2683-95). […] In brief, hippocampal neurons were cultured in 24-well plates for 13-14 days in vitro and treated with (1) vehicle, (2) 100 μM glutamate alone, (3) 100 μM glutamate plus 10 μM R-PIA, (4) 100 μM glutamate, 10 μM R-PIA, plus 30 μM LY294002, for 30 min at 37° C. Neurons were then washed twice, and incubated with regular growth medium at 37° C. for an additional 24 hrs. Neurons were stained with 4 μM calcein-AM and 4 μM EthD-1 in DPBS and mounted for imaging under a fluorescence microscope.

[3] = system: hippocampal CA3-CA1 synapses; assay: fEPSP recording in acute hippocampal slices; assay type: cell-based, mice
[4] = system: Akt phosphorylation at Thr 308; assay: A1R-mediated Akt activation in primary hippocampal neurons (Western blot); assay type: cell-based, mice
Experimental: Primary hippocampal neurons derived from WT or neurabin deficiency (Ppp1r9a^−/−) mice were treated with R-PIA at the indicated concentrations. Representative blots of phospho-Akt (pAkt, Thr308) are shown.
Primary hippocampal neurons derived from WT or neurabin deficiency (Ppp1r9a^−/−) mice were treated with R-PIA at the indicated concentrations. Quantitation of phospho-Akt (pAkt, Thr308) is shown. *** represents p<0.001 by two-way ANOVA. N=4/group.
WT and Ppp1r9a^−/− neurons were stimulated with 1 μM R-PIA for the indicated time durations. Representative blots of pAkt are shown.
WT and Ppp1r9a^−/− neurons were stimulated with 1 μM R-PIA for the indicated time durations. Quantitation of pAkt is shown. * represents p<0.05; ** represents p<0.01; **** represents p<0.0001 by two-way ANOVA for multiple comparisons. N=4/group. Data are shown as mean±SEM.

PTZ-induced seizures = assay: PTZ-induced seizure in WT and neurabin null mice; assay type: in vivo
Experimental: (§1) Induction and evaluation of seizure were performed as described previously (See, for example, Chen Y, Liu Y, Cottingham C, McMahon L, Jiao K, Greengard P, et al. Neurabin scaffolding of adenosine receptor and RGS4 regulates anti-seizure effect of endogenous adenosine. J Neurosci. 2012, 32 (8): 2683-95). Ten to twelve week-old male mice were injected (i.p.) with kainate (Sigma) at 20 or 25 mg/kg (dissolved in saline), together with or without DPCPX (Sigma, 0.5 mg/kg in saline) or yohimbine (Sigma, 0.5 mg/kg in saline). Seizure severity was scored by trained observers blind to genotype and/or treatment. The severity of seizure behaviors was scored on a scale of 0 to 7, with 0 representing normal behavior and 7 representing death (see, for example, Yang D D, Kuan C Y, Whitmarsh A J, Rincon M, Zheng T S, Davis R J, et al. Absence of excitotoxicity-induced apoptosis in the hippocampus of mice lacking the Jnk3 gene. Nature. 1997, 389 (6653): 865-70; and Cottingham C, Chen Y, Jiao K, and Wang Q. The antidepressant desipramine is an arrestin-biased ligand at the alpha (2A)-adrenergic receptor driving receptor down-regulation in vitro and in vivo. J Biol Chem. 2011, 286 (41): 36063-75). To induce seizures with pentylenetetrazole (PTZ), mice were injected (i.p.) with PTZ at 40 mg/kg (dissolved in saline), with or without 8-Cyclopentyl-1,3-dipropylxanthine (DPCPX). Seizure severity was scored every 4 min for 30 min.

kainate-induced seizures [5] = assay: Kainate-induced seizure in WT and Rgs4-/- mice; assay type: in vivo
Experimental: as §1, with “To induce seizures with pentylenetetrazole (PTZ), mice were injected (i.p.) with PTZ at 40 mg/kg (dissolved in saline), with or without 8-Cyclopentyl-1,3-dipropylxanthine (DPCPX).” left out

kainate-induced seizures [6] = assay: Kainate-induced seizure in mice given peptide (icv or intranasal); assay type: in vivo
Experimental: as §1, with “To induce seizures with pentylenetetrazole (PTZ), mice were injected (i.p.) with PTZ at 40 mg/kg (dissolved in saline), with or without 8-Cyclopentyl-1,3-dipropylxanthine (DPCPX).” left out, “min. […]” for “min.”

[7] = system: spontaneous epileptic spikes in APP/PS1 mice; assay: EEG recording of spontaneous epileptic activity in APP/PS1 mice; assay type: in vivo; conditions: intranasal peptide plus i.p. DPCPX
Experimental: Implantation of electrodes for EEG recordings was performed under isoflurane anesthesia (4.5% for induction, approximately 2% for maintenance). In brief, 1 mm stainless steel electrodes (P1 Technologies, Roanoke, VA) were implanted into the primary somatosensory cortex at 1.8, 0.02, 1 (AP, ML, DV), and reference electrodes anterior to the bregma were implanted subdurally through small holes drilled in the skull. These electrodes were held in place with Dental cement kit (Stoelting), C&B Metabond Quick Adhesive Cement System (Parkell). The ground electrode was sutured in the cervical paraspinous area. […] EEG activity was recorded for 20 hrs using Biopac Systems amplifiers (Biopac Systems EEG100C) and AcqKnowledge 4.2 EEG Acquisition and analyzed with the Reader Software (Biopac Systems).
A total of 150 hrs of data was analyzed, 54 hrs for nTg mice and 96 hrs for APP/PS1 transgenic mice. Six hrs of recording were analyzed for each animal. […] When p-operator algorithm detected a spike, all signals were visually inspected to include in the analysis only those that were true positives in order to avoid non-epileptic artifacts caused by electrical noise (e.g., grooming) during spike selection. Spectral content of EEG signals were calculated using short-time Fourier transform (FFT).

With “A1R-CT: peptide carrying the sequence of the A1R C-tail (aa293-326), without TAT fusion (QKFRVTFLKIWNDHFRCQPAPPIDEDLPEERPDD; UniProt P30542 293-326, looked up, fragment)” the “direct interaction of A1R (aa202-326) with Nrb331-453” value [1] was “markedly reduced”.

CC(Cc1ccccc1)Nc1ncnc2c1ncn2[C@@H]1O[C@H](CO)[C@@H](O)[C@H]1O (single isomer, unassigned; (-)) [R-PIA, (−)-N6-(2-Phenylisopropyl) adenosine] was tested, and the “effect on glutamate-induced neuronal death” value [2] was “protective effect”, the “inhibition of baseline transmission” value ([3]; WT mice slices, 100 nM) was “about 75%” and the “inhibition of fEPSP” value ([3]; WT mice slices, 10, 30, 100 nM) was “dose-dependently inhibited”. For the same molecule, the “inhibition of fEPSP vs WT slices” value ([3]; slices from Ppp1r9a-/- or Rgs4-/- mice, same concentration (10 nM, FIG. 2E-F)) was “significantly higher level of inhibition”, the “Akt phosphorylation at Thr 308” value ([4]; WT neurons) was “dose-dependent increase” and the “Akt activation over time” value ([4]; WT neurons, 1 μM R-PIA) was “desensitized after 30 min stimulation”. The “phospho-Akt levels at 30 min” value ([4]; neurons lacking neurabin, 1 μM R-PIA) was “no apparent reduction” and the “Akt phosphorylation vs WT neurons” value ([4]; neurons lacking neurabin, same dose) was “significantly higher level of Akt phosphorylation”.

For C1CCc2nnnn2CC1 [PTZ, pentylenetetrazole], the “PTZ-induced lethality within 40 minutes” value (PTZ-induced seizures; WT mice, PTZ alone) was “About 10%”.

C=C(C)[C@H]1CN[C@H](C(=O)O)[C@H]1CC(=O)O [kainate] was tested, and the mortality after kainate (kainate-induced seizures [5]; WT mice, kainate 20 mg/kg) was “over 40%”.

In the case of CCCn1c(=O)c2[nH]c(C3CCCC3)nc2n(CCC)c1=O [DPCPX, 8-Cyclopentyl-1,3-dipropylxanthine], the “anti-seizure effect of A1R-CT on co-treatment with DPCPX” value (kainate-induced seizures [6]; icv peptide) was “no longer observed”, the “anti-seizure effect of TAT-A1R-CT peptide on co-treatment with DPCPX” value (kainate-induced seizures [6]; intranasal peptide) was “abolished” and the “PTZ-induced seizure severity on co-treatment with DPCPX” value (PTZ-induced seizures; WT and neurabin null mice, vs PTZ alone) was “continued to progress to a much more severe level”. The “death after combined treatment with PTZ and DPCPX” value (PTZ-induced seizures; both genotypes (WT, Ppp1r9a-/-)) was “more than 55%”, the “effect of TAT-A1R-CT on epileptic activities with DPCPX” value [7] was “failed to reduce epileptic activities” and the “effect of A1R blockade on seizure severity and mortality rate” value (kainate-induced seizures [5]; Rgs4-/- mice, kainate plus DPCPX, to a level similar to WT) was “increased the seizure severity and mortality rate”.

“3i loop peptide: peptide carrying the sequence of the A1R 3i loop (aa202-235) (EVFYLIRKQLNKKVSASSGDPQKYYGKELKIAKS; UniProt P30542 202-235, looked up, fragment)” was tested, and the “direct interaction of A1R (aa202-326) with Nrb331-453” value [1] was “no effect”.
